The test system of data set [1] is MC38 colon carcinoma cells. In words: MC38 colon carcinoma mouse model, tumour volume by caliper. Particulars: female C57/BL6N mice with MC38 tumours; CyPep-1 2 mg/kg intratumoural days 1 and 2; anti-PD-1 antibody 5 mg/kg intraperitoneal days 4, 8, 11, 15; unpaired two-tailed t-test; combination P=0.02. Type of data set: in vivo. The method, then: Female C57/BL6N mice were shaved at the intended site of tumour inoculation. 4 days later the mice were implanted with 5×10^5 MC38 colon carcinoma cells in a mixture of 50% PBS and 50% matrigel in a total injection volume of 100 μl.
Tumour sizes were measured by caliper. When the median tumour volume reached 100 mm^3, 40 mice were randomised to four groups: 1) Ctr_IT; 2) Ctr_IT_PD1; 3) CyPep_IT; and 4) CyPep_IT_PD1.
The Ctr_IT group were administered 0.05 ml/kg intratumoural PBS on days 1 and 2.
The Ctr_IT_PD1 group were administered 0.05 ml/kg/day intratumoural PBS on days 1 and 2, and 5 mg/kg intraperitoneal anti-PD-1 antibody on days 4, 8, 11 and 15. The anti-PD-1 antibody was administered in PBS at a concentration of 1 mg/ml.
The CyPep_IT group were administered 2 mg/kg CyPep-1 on days 1 and 2. Administration was intratumoural in PBS at a concentration of 40 mg/ml.
The CyPep_IT_PD1 group were administered 2 mg/kg intratumoural CyPep-1 in PBS at a concentration of 40 mg/ml on days 1 and 2; and 5 mg/kg intraperitoneal anti-PD-1 antibody on days 4, 8, 11 and 15, in PBS at a concentration of 1 mg/ml.
All groups were standardised prior to checkpoint inhibitor administration by excluding animals with tumours+/−>2X average at day three. […] Average tumour volumes of the groups were analysed by unpaired two-tailed t-test, and the tumours were also histologically analysed.

In data set [2] the test system is tumour. The settings on record: animal models of disease; cited from earlier work.
Data set [3] has as its system Gram-positive and Gram-negative bacteria. Particulars: medically-relevant species of Gram-positive and Gram-negative bacteria; cited from earlier work.
The test system of data set [4] is cancer cells. Particulars: in vitro; cited from earlier work.

Where no end group is shown, it is not given here. [ ]: non-standard residue; d: D form.

For the substance “CyPep-1: all D-amino acid peptide of SEQ ID NO: 1; Conductin/Axin2 fragment coupled to the C-terminus of the HIV-TAT cell-penetrating peptide ([dY]G[dR][dK][dK][dR][dR][dQ][dR][dR][dR]G[dK][dT][dL][dR][dV][dA][dK][dA][dI][dY][dK][dR][dY][dI][dE])”, the “tumour growth compared to the control group which received only PBS” value in data set [1] is “no statistically-significant difference”. Besides, in data set [2], the anti-tumour effect result is “strong anti-tumour effect” and the tolerability result was “well tolerated”. The bacteriocidal effect entry in data set [3] is on record as “potent bacteriocidal effect”. In addition, the “selective cytotoxicity towards cancer cells” value in data set [4] is recorded as “selectively cytotoxic towards cancer cells”.

(Values after patent publication US20210154268A1, “COMBINATION THERAPY USING A PEPTIDE” (CYTOVATION AS, priority 2018, published 2021).)
